According to patent US7060293B1, “Powder-layered oral dosage forms” (Purdue Pharma, priority 1994, dated 2006):
Counter-ions that a name gives are not always drawn.

Experiment: not given
Conditions: entries without asterisk (not marked as performed at PRC); cited from earlier work

Question: Which “Tapped Bulk Densities” value does the source give for `CCN(CC)CCNC(=O)c1cc(Cl)c(N)cc1OC` [Metoclopramide HCL] here?
Answer: 0.5 g/mL

Question: For “Doxycycline Metaphosphate Sodium Complex”, which “Tapped Bulk Densities” value is on record?
Answer: 0.49 g/mL

Experiment: Bulk density (poured and tapped) of drug powders and processing aid
Type: physicochemical
Conditions: entries with asterisk: Bulk Densities performed at PRC

Question: With `Cn1c(=O)c2[nH]cnc2n(C)c1=O` [Aminophylline USP, Aminophylline] as the molecule, how does the “Tapped Bulk Densities” value read?
Answer: 0.62 g/mL

Question: With `O=C(O)Cc1ccccc1Nc1c(Cl)cccc1Cl` [Diclofenac Sodium] as the molecule, how does the “Tapped Bulk Densities” value read?
Answer: 0.31 g/mL

Question: With `O=C1O[C@H]([C@@H](O)CO)C([O-])=C1O.[Na+]` [Sodium Ascorbate USP, Sodium Ascorbate] as the molecule, how does the “Tapped Bulk Densities” value read?
Answer: 0.66 g/mL

Question: Which “Tapped Bulk Densities” value does the source give for `Cn1c(=O)c2[nH]cnc2n(C)c1=O` [Theophylline Anhydrous] here?
Answer: 0.44 g/mL

Question: With `COc1cccc(C2(O)CCCCC2CN(C)C)c1` (stereo not shown) [Tramadol HCL] as the molecule, how does the “Tapped Bulk Densities” value read?
Answer: 0.42 g/mL

Same assay, conditions: powder used in the examples

Question: For `CC(=O)Nc1ccc(O)cc1` [Acetaminophen], which bulk density is on record?
Answer: about 0.42 g/ml

Question: With `CCN(CC)CCNC(=O)c1cc(Cl)c(N)cc1OC` [Metoclopramide HCL] as the molecule, how does the bulk density read?
Answer: about 0.5 g/ml

Question: With `COc1cccc(C2(O)CCCCC2CN(C)C)c1` (stereo not shown) [Tramadol HCL] as the molecule, how does the bulk density read?
Answer: about 0.42 g/ml

Question: With `O.OC[C@H]1O[C@@H](O[C@H]2[C@H](O)[C@@H](O)[C@@H](O)O[C@@H]2CO)[C@H](O)[C@@H](O)[C@H]1O` [lactose hydrous impalpable] as the molecule, how does the bulk density read?
Answer: 0.56 g/mL

Question: What about the tapped bulk density of the same molecule?
Answer: about 0.64 g/ml

Question: Which bulk density does the source give for “Codeine Sulfate [Codeine Sulfate USP Medium Crystals Fine]” here?
Answer: about 0.6 g/ml
